Reference: US20240252668A1, “ANTIBODY DRUG CONJUGATES AND METHODS FOR MAKING THEREOF” (Novartis AG, priority 2021, published 2024)
Read-outs that look alike come from different tables or passages of the source. Starred links: 1 amine or outer side, 2 acyl side, 3 side chain; linkers in the order of their positions; H or OH if unused. Positions of bridges follow the written chain, without caps; N, C: chain ends. Non-standard residues stand in square brackets, D forms with d. Residues, ends and D or L forms follow the SMILES beside them. ξ: configuration not given here. *: point of attachment. Leu(3R-OH,Nα-propionyl) = CCC(=O)N[C@H](C(=O)*)[C@H](O)C(C)C; X1 = CC(C)[C@@H](O[*:3])[C@H](N[*:1])C(=O)[*:2]; X5 = CSC[C@@H](O[*:3])[C@H](N[*:1])C(=O)[*:2]; X4 = CCC(=O)N[C@H](C(=O)*)[C@H](O)CSC; ξLeu(3ξ-OH) = CC(C)C(O)C(N)C(=O)O; NMeT = CN[CH](C(=O)O)[CH](C)O; dPhLac = O=C(O)[C@H](O)Cc1ccccc1; PhLac = O=C(O)[CH](O)Cc1ccccc1; NMeA = CN[CH](C)C(=O)O; NMeDha = C=C(NC)C(=O)O

Tests used:
[1] = system: MP41 uveal melanoma cell line (heterozygous GNA11 Q209L); experiment: Cell proliferation assay (resazurin cell viability), MP41 cell line; type: cell-based
Source text: (§1) Cell Proliferation Assays with Chromodepsins (compounds (A1) and 2-15): Cell line descriptions: 92.1—uveal melanoma cell line, derived from primary tumor, harboring heterozygous GNAQ Q209L mutation. Purchased from Sigma Aldrich. MP41 (CRL-3297) -uveal melanoma cell line, derived from primary tumor, harboring heterozygous GNA11 Q209L mutation. Purchased from ATCC. A375—skin melanoma cell line, harboring homozygous BRAF V600E mutation. Origin: Cancer Cell Line Encyclopedia (CCLE). SK-MEL-30—skin melanoma cell line, harboring heterozygous NRAS Q61K mutation. Origin: CCLE.
(§2) Cells were cultured in 96-well plates in a total volume of 100 μL at 37° C., 5% CO2 and 95% relative humidity. All cell lines were cultured in RPMI Medium (RPMI 1640 w/o L-glutamine, Bioconcept ref. 1-41F01-I) except A375, DMEM medium (DMEM high glucose (4.5 g/L), Bioconcept, ref. 1-26F01-I), and supplemented with 10% FCS (Bioconcept, ref. 2-01F30-I). Two to three thousand cells were seeded in 96-well plates per well the night before they were treated with compounds (concentration range: from 260 nM to 0.036 nM with ⅓ dilution steps; for 7 the concentration range was increased from 10000 nM to 1.52 nM with ⅓ dilution steps). Cell viability was measured by addition of 10 ul of resazurin per well after 96 hours of treatment. Results were analyzed and plotted using GraphPad Prism 9.0.1.

[2] = system: 92.1 uveal melanoma cell line (heterozygous GNAQ Q209L); experiment: Cell proliferation assay (resazurin cell viability), 92.1 cell line; type: cell-based
Source text: as §1, §2

[3] = system: A375 skin melanoma cell line (homozygous BRAF V600E); experiment: Cell proliferation assay (resazurin cell viability), A375 cell line; type: cell-based
Source text: as §1, §2

[4] = system: 92.1 and MP41 cell lines (GNAQ/GNA11 mutant uveal melanoma); experiment: Cell proliferation assays, potency ranking over both uveal melanoma lines; type: cell-based; conditions: for loss of potency compared to compound (A1) (growth inhibition): 92.1 and MP41 cell lines
Source text: The selective antiproliferative profile of the chromodepsins against GNAQ/GNA11 mutant cell lines is confirmed by the lack of activity against the A375 and SK MEL 30 cell lines that are independent from GNAQ/GNA11 signaling. The potency ranking using the 92.1 and MP41 cell lines is in good agreement with the previously SAR studies. […] These findings are in line with a recent report from Voss et al., highlighting the importance of the “lipophilic anchors” of compound (A1) at the residues varied in compounds 2 and 3, in context of binding kinetics and prolonged residence time on the target proteins. The retained potency of compound 4 indicates a promising exit vector for potential synthetic or biosynthetic modifications of the scaffold. […] The linearized depsipeptides compounds 5-7 lack any antiproliferative activity. In this experimental setup, the cellular permeability of the compounds was a crucial factor contributing to the observed antiproliferative potency. Therefore, all compounds were characterized in a low efflux MCDK assay and determined their exposed polar surface areas (EPSA) in order to assess their passive cellular permeabilities. All macrocyclic chromodepsins that feature the N acyl Hle side chain show similar results concerning their % fraction absorbed (% FA; average ˜60% FA+20%) and EPSA values.
as §1, §2

[5] = EPSA determination by supercritical fluid chromatography; type: physicochemical; conditions: for EPSA: modified EPSA method, SFC
Procedure: […] by supercritical fluid chromatography: Compounds (A1) and 2-15 were tested by supercritical fluid chromatography (SFC) to determine their ESAPSA values. Samples were analyzed using a Chirex 3014 column ([…], 3×100 mm column, 100 Å pore size; Phenomenex. The starting conditions were 5% methanol containing 20 mM ammonium formate and 95% scCO2. The gradient was increased linearly to 60% methanol containing 20 mM ammonium formate in 4.5 min.

MDCK-LE monolayers = experiment: Cell-based transwell assay with MDCK-low efflux monolayers (passive permeability); type: in vitro ADME; conditions: for % Fraction absorbed / % Recovery / Papp A − B: MDCK-LE monolayers
Procedure: Cell-based transwell assays with MDCK-low efflux monolayers: Compounds (A1) and 2-15 were tested in MDCK cell sub-clones with low effluxt ransporter activity (MDCK-LE) in order to determine their passive permeability. The incubations were performed at a contract research organization as described previously.

[6] = system: SK-MEL-30 skin melanoma cell line (heterozygous NRAS Q61K); experiment: Cell proliferation assay (resazurin cell viability), SK-MEL-30 cell line; type: cell-based
Source text: as §1, §2

[7] = MP41 (GNA11 Q209L), 96 hours of treatment, read-out: GI50 by cell line, MP41
[8] = MP41 cell line, average of Rep. 1 and 2, read-out: GI50 MP41 Average
[9] = MP41 cell line, replicate 1, read-out: GI50 MP41 Rep. 1
[10] = MP41 cell line, replicate 2, read-out: GI50 MP41 Rep. 2
[11] = 92.1 (GNAQ Q209L), 96 hours of treatment, read-out: GI50 by cell line, 92.1
[12] = 92.1 cell line, average of Rep. 1 and 2, read-out: GI50 92.1 Average
[13] = 92.1 cell line, replicate 1, read-out: GI50 92.1 Rep. 1
[14] = 92.1 cell line, replicate 2, read-out: GI50 92.1 Rep. 2
[15] = A375 (GNAQ/11 wild type), 96 hours of treatment, read-out: GI50 by cell line, A375
[16] = A375 cell line, average of Rep. 1 and 2, read-out: GI50 A375 Average
[17] = A375 cell line, replicate 1, read-out: GI50 A375 Rep. 1
[18] = A375 cell line, replicate 2, read-out: GI50 A375 Rep. 2
[19] = versus macrocyclic chromodepsins with N-acyl-Hle side chain
[20] = SK-MEL-30 (GNAQ/11 wild type), 96 hours of treatment, read-out: GI50 by cell line, SK-MEL-30
[21] = SK-MEL-30 cell line, average of Rep. 1 and 2, read-out: GI50 SK-MEL-30 Average
[22] = SK-MEL-30 cell line, replicate 1, read-out: GI50 SK-MEL-30 Rep. 1
[23] = SK-MEL-30 cell line, replicate 2, read-out: GI50 SK-MEL-30 Rep. 2

| Compound | GI50 [1, 7] [nM] | GI50 [1, 8] [nM] | GI50 [1, 9] [nM] | GI50 [1, 10] [nM] | GI50 [2, 11] [nM] | GI50 [2, 12] [nM] | GI50 [2, 13] [nM] | GI50 [2, 14] [nM] | GI50 [3, 15] [nM] | GI50 [3, 16] [nM] | GI50 [3, 17] [nM] | GI50 [3, 18] [nM] | EPSA [5] [A^2] | % Fraction absorbed (MDCK-LE monolayers) [%] | % Recovery (MDCK-LE monolayers) [%] | Papp A − B (MDCK-LE monolayers) [×10⁻⁶ cm/s] | GI50 [6, 20] [nM] | GI50 [6, 21] [nM] | GI50 [6, 22] [nM] | GI50 [6, 23] [nM] | also measured |
| --- | --- | --- | --- | --- | --- | --- | --- | --- | --- | --- | --- | --- | --- | --- | --- | --- | --- | --- | --- | --- | --- |
| C=C1C(=O)NC(C)C(=O)N(C)C(C)C(=O)NC(C(O)C(C)C)C(=O)N(C)C(C(C)OC)C(=O)OC(C)C(NC(C)=O)C(=O)OC(Cc2ccccc2)C(=O)N1C (stereo not drawn) [Compound 15] (Ac-T[PhLac][NMeDha]A[NMeA][ξLeu(3ξ-OH)][NMeT](Me); ester 1-C; configuration not given here) | > 10000 | > 10000 | > 10000 | > 10000 | > 10000 | > 10000 | > 10000 | > 10000 | > 10000 | > 10000 | > 10000 | > 10000 | 109 | 15 | 90 | 0.79 | > 10000 | > 10000 | > 10000 | > 10000 | antiproliferative activity (in words) [4]: some antiproliferative activity observed at the highest doses tested; GI50 ([4]; cell line not specified): > 10000 nM; change in EPSA (in words) [5, 19]: slight changes; reduction in % FA (MDCK-LE monolayers; [19]): ~5 fold |
| C=C1C(=O)N[C@@H](C)C(=O)N(C)[C@@H](C)C(=O)N[C@@H]([C@H](OC(=O)[C@@H](NC(=O)CC)[C@H](O)CSC)C(C)C)C(=O)N(C)[C@@H]([C@@H](C)OC)C(=O)O[C@H](C(C)C)[C@H](NC(C)=O)C(=O)O[C@H](Cc2ccccc2)C(=O)N1C [Compound 4] (Ac-[X1][dPhLac][NMeDha]A[NMeA][X1](X4)[NMeT](Me); ester 1-C) | 0.5 | 0.5 | 0.45 | 0.53 | 1.2 | 1.2 | 0.91 | 1.5 | > 260 | > 260 | > 260 | > 260 | 104 | 32.5 | 75 | 1.71 | > 260 | > 260 | > 260 | > 260 | loss of potency compared to compound (A1) (growth inhibition) [4]: two-fold |
| C=C1C(=O)N[C@@H](C)C(=O)N(C)[C@@H](C)C(=O)N[C@@H]([C@H](OC(=O)[C@@H](NC(=O)CC)[C@H](O)C(C)C)C(C)C)C(=O)N(C)[C@@H]([C@@H](C)OC)C(=O)O[C@H](CSC)[C@H](NC(C)=O)C(=O)O[C@H](Cc2ccccc2)C(=O)N1C [Compound 2] (Ac-[X5][dPhLac][NMeDha]A[NMeA][X1](Leu(3R-OH,Nα-propionyl))[NMeT](Me); ester 1-C) | 3.7 | 3.7 | 3.17 | 4.3 | 9.8 | 9.8 | 8 | 11.6 | > 260 | > 260 | > 260 | > 260 | 104 | 72.6 | 72 | 6.35 | > 260 | > 260 | > 260 | > 260 | loss of potency compared to compound (A1) (growth inhibition) [4]: ~15 fold |
| C=C1C(=O)N[C@@H](C)C(=O)N(C)[C@@H](C)C(=O)N[C@@H]([C@@H](CSC)OC(=O)[C@@H](NC(=O)CC)[C@H](O)C(C)C)C(=O)N(C)[C@@H]([C@@H](C)OC)C(=O)O[C@H](C(C)C)[C@H](NC(C)=O)C(=O)O[C@H](Cc2ccccc2)C(=O)N1C [Compound 3] (Ac-[X1][dPhLac][NMeDha]A[NMeA][X5](Leu(3R-OH,Nα-propionyl))[NMeT](Me); ester 1-C) | 4 | 4 | 3.12 | 4.89 | 10.4 | 10.4 | 9.05 | 11.7 | > 260 | > 260 | > 260 | > 260 | 98 | 86.1 | 90 | 12.2 | > 260 | > 260 | > 260 | > 260 | loss of potency compared to compound (A1) (growth inhibition) [4]: ~15 fold |
